PubChem BioAssay AID1259407 (Chemical Carcinogenesis Research Information System (CCRIS), 2018)
Calls of active or inactive are those of the source. The rule behind the calls is not given here.

Test system: CCRIS mutagenicity, Ames/micronucleus/aberration tests
Experiment: CCRIS mutagenicity studies

Nc1ccc(Cl)cc1
mutagenic call (End Point: IN VITRO MICRONUCLEUS, Test System: CHL/IU CELLS, Metabolic Activation: RAT, LIVER, S-9, PHENOBARBITAL AND 5,6-BENZOFLAVONE): inactive; negative
mutagenic call (Test System: AMES SALMONELLA TYPHIMURIUM, Strain/Indicator: TA97, Metabolic Activation: HAMSTER, LIVER, S-9, AROCLOR 1254, Method: PREINCUBATION): inactive; negative
mutagenic call (Test System: AMES SALMONELLA TYPHIMURIUM, Strain/Indicator: TA97, Metabolic Activation: NONE, Method: PREINCUBATION): inactive; negative
mutagenic call (Test System: AMES SALMONELLA TYPHIMURIUM, Strain/Indicator: TA97, Metabolic Activation: RAT, LIVER, S-9, AROCLOR 1254, Method: PREINCUBATION): inactive; negative
mutagenic call (Test System: AMES SALMONELLA TYPHIMURIUM, Strain/Indicator: TA98, Metabolic Activation: HAMSTER, LIVER, S-9 (10%), AROCLOR 1254, Method: PREINCUBATION): active; positive
mutagenic call (Test System: AMES SALMONELLA TYPHIMURIUM, Strain/Indicator: TA98, Metabolic Activation: HAMSTER, LIVER, S-9, AROCLOR 1254, Method: STANDARD PLATE): active; positive
mutagenic call (Test System: AMES SALMONELLA TYPHIMURIUM, Strain/Indicator: TA98, Metabolic Activation: NONE, Method: PREINCUBATION): inactive; negative
mutagenic call (Test System: AMES SALMONELLA TYPHIMURIUM, Strain/Indicator: TA98, Metabolic Activation: NONE, Method: SPOT TEST): inactive; negative
mutagenic call (Test System: AMES SALMONELLA TYPHIMURIUM, Strain/Indicator: TA98, Metabolic Activation: RAT, LIVER, S-9 (5%, 10% OR 30%), AROCLOR 1254, Method: PREINCUBATION): active; positive
mutagenic call (Test System: AMES SALMONELLA TYPHIMURIUM, Strain/Indicator: TA98, Metabolic Activation: RAT, LIVER, S-9, AROCLOR 1254, Method: SPOT TEST): inactive; negative
mutagenic call (Test System: AMES SALMONELLA TYPHIMURIUM, Strain/Indicator: TA98, Metabolic Activation: RAT, LIVER, S-9, SODIUM PHENOBARBITONE, Method: SPOT TEST): inactive; negative
mutagenic call (Test System: AMES SALMONELLA TYPHIMURIUM, Strain/Indicator: TA98, Metabolic Activation: RAT, LIVER, S-9, SODIUM PHENOBARBITONE, Method: STANDARD PLATE): inactive; negative
mutagenic call (Test System: AMES SALMONELLA TYPHIMURIUM, Strain/Indicator: TA100, Metabolic Activation: HAMSTER, LIVER, S-9 (5% OR 10%), AROCLOR 1254, Method: PREINCUBATION): inactive; negative
mutagenic call (Test System: AMES SALMONELLA TYPHIMURIUM, Strain/Indicator: TA100, Metabolic Activation: HAMSTER, LIVER, S-9, AROCLOR 1254, Method: PREINCUBATION): inactive; negative
mutagenic call (Test System: AMES SALMONELLA TYPHIMURIUM, Strain/Indicator: TA100, Metabolic Activation: HAMSTER, LIVER, S-9, AROCLOR 1254, Method: STANDARD PLATE): inactive; negative
mutagenic call (Test System: AMES SALMONELLA TYPHIMURIUM, Strain/Indicator: TA100, Metabolic Activation: NONE, Method: PREINCUBATION): inactive; negative
mutagenic call (Test System: AMES SALMONELLA TYPHIMURIUM, Strain/Indicator: TA100, Metabolic Activation: NONE, Method: SPOT TEST): inactive; negative
mutagenic call (Test System: AMES SALMONELLA TYPHIMURIUM, Strain/Indicator: TA100, Metabolic Activation: RAT, LIVER, S-9 (5% OR 10%), AROCLOR 1254, Method: PREINCUBATION): inactive; negative
mutagenic call (Test System: AMES SALMONELLA TYPHIMURIUM, Strain/Indicator: TA100, Metabolic Activation: RAT, LIVER, S-9 (30%), AROCLOR 1254, Method: PREINCUBATION): inactive; negative
mutagenic call (Test System: AMES SALMONELLA TYPHIMURIUM, Strain/Indicator: TA100, Metabolic Activation: RAT, LIVER, S-9, AROCLOR 1254, Method: PREINCUBATION): inactive; negative
mutagenic call (Test System: AMES SALMONELLA TYPHIMURIUM, Strain/Indicator: TA100, Metabolic Activation: RAT, LIVER, S-9, AROCLOR 1254, Method: SPOT TEST): inactive; negative
mutagenic call (Test System: AMES SALMONELLA TYPHIMURIUM, Strain/Indicator: TA100, Metabolic Activation: RAT, LIVER, S-9, AROCLOR 1254, Method: STANDARD PLATE): inactive; negative
mutagenic call (Test System: AMES SALMONELLA TYPHIMURIUM, Strain/Indicator: TA100, Metabolic Activation: RAT, LIVER, S-9, SODIUM PHENOBARBITONE, Method: SPOT TEST): inactive; negative
mutagenic call (Test System: AMES SALMONELLA TYPHIMURIUM, Strain/Indicator: TA100, Metabolic Activation: RAT, LIVER, S-9, SODIUM PHENOBARBITONE, Method: STANDARD PLATE): inactive; negative
mutagenic call (Test System: AMES SALMONELLA TYPHIMURIUM, Strain/Indicator: TA1535, Metabolic Activation: HAMSTER, LIVER, S-9, AROCLOR 1254, Method: PREINCUBATION): inactive; negative
mutagenic call (Test System: AMES SALMONELLA TYPHIMURIUM, Strain/Indicator: TA1535, Metabolic Activation: NONE, Method: PREINCUBATION): inactive; negative
mutagenic call (Test System: AMES SALMONELLA TYPHIMURIUM, Strain/Indicator: TA1535, Metabolic Activation: NONE, Method: SPOT TEST): inactive; negative
mutagenic call (Test System: AMES SALMONELLA TYPHIMURIUM, Strain/Indicator: TA1535, Metabolic Activation: NONE, Method: STANDARD PLATE): inactive; negative
mutagenic call (Test System: AMES SALMONELLA TYPHIMURIUM, Strain/Indicator: TA1535, Metabolic Activation: RAT, LIVER, S-9, AROCLOR 1254, Method: PREINCUBATION): inactive; negative
mutagenic call (Test System: AMES SALMONELLA TYPHIMURIUM, Strain/Indicator: TA1535, Metabolic Activation: RAT, LIVER, S-9, AROCLOR 1254, Method: SPOT TEST): inactive; negative
mutagenic call (Test System: AMES SALMONELLA TYPHIMURIUM, Strain/Indicator: TA1535, Metabolic Activation: RAT, LIVER, S-9, AROCLOR 1254, Method: STANDARD PLATE): inactive; negative
mutagenic call (Test System: AMES SALMONELLA TYPHIMURIUM, Strain/Indicator: TA1535, Metabolic Activation: RAT, LIVER, S-9, SODIUM PHENOBARBITONE, Method: SPOT TEST): inactive; negative
mutagenic call (Test System: AMES SALMONELLA TYPHIMURIUM, Strain/Indicator: TA1535, Metabolic Activation: RAT, LIVER, S-9, SODIUM PHENOBARBITONE, Method: STANDARD PLATE): inactive; negative
mutagenic call (Test System: AMES SALMONELLA TYPHIMURIUM, Strain/Indicator: TA1537, Metabolic Activation: HAMSTER, LIVER, S-9, AROCLOR 1254, Method: PREINCUBATION): inactive; negative
mutagenic call (Test System: AMES SALMONELLA TYPHIMURIUM, Strain/Indicator: TA1537, Metabolic Activation: NONE, Method: PREINCUBATION): inactive; negative
mutagenic call (Test System: AMES SALMONELLA TYPHIMURIUM, Strain/Indicator: TA1537, Metabolic Activation: NONE, Method: SPOT TEST): inactive; negative
mutagenic call (Test System: AMES SALMONELLA TYPHIMURIUM, Strain/Indicator: TA1537, Metabolic Activation: NONE, Method: STANDARD PLATE): inactive; negative
mutagenic call (Test System: AMES SALMONELLA TYPHIMURIUM, Strain/Indicator: TA1537, Metabolic Activation: RAT, LIVER, S-9, AROCLOR 1254, Method: PREINCUBATION): inactive; negative
mutagenic call (Test System: AMES SALMONELLA TYPHIMURIUM, Strain/Indicator: TA1537, Metabolic Activation: RAT, LIVER, S-9, AROCLOR 1254, Method: SPOT TEST): inactive; negative
mutagenic call (Test System: AMES SALMONELLA TYPHIMURIUM, Strain/Indicator: TA1537, Metabolic Activation: RAT, LIVER, S-9, AROCLOR 1254, Method: STANDARD PLATE): inactive; negative
mutagenic call (Test System: AMES SALMONELLA TYPHIMURIUM, Strain/Indicator: TA1537, Metabolic Activation: RAT, LIVER, S-9, SODIUM PHENOBARBITONE, Method: SPOT TEST): inactive; negative
mutagenic call (Test System: AMES SALMONELLA TYPHIMURIUM, Strain/Indicator: TA1537, Metabolic Activation: RAT, LIVER, S-9, SODIUM PHENOBARBITONE, Method: STANDARD PLATE): inactive; negative
mutagenic call (Test System: AMES SALMONELLA TYPHIMURIUM, Strain/Indicator: TA1538, Metabolic Activation: NONE, Method: SPOT TEST): inactive; negative
mutagenic call (Test System: AMES SALMONELLA TYPHIMURIUM, Strain/Indicator: TA1538, Metabolic Activation: NONE, Method: STANDARD PLATE): inactive; negative
mutagenic call (Test System: AMES SALMONELLA TYPHIMURIUM, Strain/Indicator: TA1538, Metabolic Activation: RAT, LIVER, S-9, AROCLOR 1254, Method: SPOT TEST): inactive; negative
mutagenic call (Test System: AMES SALMONELLA TYPHIMURIUM, Strain/Indicator: TA1538, Metabolic Activation: RAT, LIVER, S-9, AROCLOR 1254, Method: STANDARD PLATE): inactive; negative
mutagenic call (Test System: AMES SALMONELLA TYPHIMURIUM, Strain/Indicator: TA1538, Metabolic Activation: RAT, LIVER, S-9, SODIUM PHENOBARBITONE, Method: SPOT TEST): inactive; negative
mutagenic call (Test System: AMES SALMONELLA TYPHIMURIUM, Strain/Indicator: TA1538, Metabolic Activation: RAT, LIVER, S-9, SODIUM PHENOBARBITONE, Method: STANDARD PLATE): inactive; negative
mutagenic call (Test System: E. COLI, Strain/Indicator: WP2 UVRA(P), Metabolic Activation: NONE, Method: STANDARD PLATE): inactive; negative
mutagenic call (Test System: E. COLI, Strain/Indicator: WP2 UVRA, Metabolic Activation: NONE, Method: FLUCTUATION TEST): inactive; negative
mutagenic call (Test System: E. COLI, Strain/Indicator: WP2 UVRA, Metabolic Activation: NONE, Method: STANDARD PLATE): inactive; negative
mutagenic call (Test System: MOUSE LYMPHOMA, Strain/Indicator: L5178Y (TK+/TK-), Metabolic Activation: NONE, Method: SUSPENSION/PLATE): active; positive
mutagenic call (Test System: MOUSE LYMPHOMA, Strain/Indicator: L5178Y (TK+/TK-), Metabolic Activation: RAT, LIVER, S-9, AROCLOR 1254, Method: SUSPENSION/PLATE): active; positive
mutagenic call (Test System: Mouse lymphoma, Strain/Indicator: L5178Y (tk+/tk-), Metabolic Activation: None, Method: Suspension/plate): active; equivocal (previous evaluation positive)
mutagenic call (Test System: Mouse lymphoma, Strain/Indicator: T5178Y (tk+/tk-), Metabolic Activation: Rat, Liver, S-9, Aroclor 1254, Method: Suspension/plate): active; inconclusive (previous evaluation positive)
